Marks after values point to notes of the source that are not given here.
Columns and labels:
cerebral ischemia [1] = assay: Transient focal cerebral ischemia in rats (2 h clamp of left middle cerebral artery plus carotid ligation, then reperfusion), Studies 1-3; format: in vivo, rat (male Sprague Dawley); settings: for reduction of the cortical lesion: vs control group; for CORTICAL LESION: mean ± S.E.M.
Protocol: Male Sprague Dawley rats (230-250 g Iffa Credo) are fed and watered ad libitum and kept in a light-dark cycle of 12 hours. Surgery was carried out under halothane (1.4% in a mixture of 70% N2O/30% O2). During anesthesia, normothermia is maintained by placing the rat under a thermostated cover. The left common carotid artery is isolated and a loose ligature is put in place. The left middle cerebral artery is exposed via a subtemporal craniotomy and a microclamp is placed in the proximal region of the artery, immediately followed by the ligation of the carotid artery. Two hours later, the animals are reanesthetized and the cerebral circulation is reestablished by removing the clamp from the middle cerebral artery and the ligature from the carotid artery. The rats are then placed in their cage in a thermostated room at 26-28° C. 48 hours after the surgery, a neurological examination is carried out for each rat by an examiner unaware of the treatment. The neurological scale used is described in Table 1. [table] After the neurological examination, the rats are humanely killed and their brains removed. 1.5 mm thick serial sections are prepared and stained with 2,3,5-triphenyltetrazolium chloride (TTC) at 2%. After 24 hours of post-fixing in a 10% formaldehyde solution, the lesion areas (cerebral infarct) are measured at the cortical and striatal levels; the volumes are calculated by integrating the lesioned surface areas. The values are expressed in mm^3 (mean ±S.E.M). Statistical analysis was carried out by a Mann-Whitney test or by a Kruskal-Wallis test for non-parametric variance analysis followed by a Dunn test for comparison between groups (*:p<0.05, **:p<0.01, ***:p<0.001 vs control group). In Study 1, enoxaparin is administered to 12 rats at 1.5 mg/kg iv, 2 hours and 24 hours after the onset of the ischemia. A control group of 10 rats receives only the vehicle (physiological solution of sodium chloride at 0.9%) following the same protocol. In Study 2, the therapeutic window of opportunity for enoxaparin is explored. The treatment starts 5 hours after the ischemia followed by a second administration at 24 hours. This study consists in an enoxaparin dose-effect on the cerebral lesions. The doses studied are 0.5:1 and 1.5 mg/kg iv (9-10 rats per group). A control group of 11 rats receives only the vehicle (physiological solution of sodium chloride at 0.9%). In Study 3, enoxaparin is administered to 10 rats at 1.5 mg/kg iv, 5 and 24 hours after the onset of the ischemia. The control group of 13 rats receives only the vehicle (physiological solution of sodium chloride at 0.9%).

cerebral ischemia [2] = assay: Permanent focal cerebral ischemia in rats (left middle cerebral artery permanently cauterized, no carotid occlusion), Study 4; format: in vivo, rat (male Sprague Dawley); settings: Study 4 (permanent occlusion), 2 × 1.5 mg/kg iv

Substance: Enoxaparin
- reduction of the cortical lesion (cerebral ischemia [1]; Study 1, 2 × 1.5 mg/kg iv, 2 h and 24 h): 30%
- CORTICAL LESION (cerebral ischemia [1]; Study 1, 2 × 1.5 mg/kg iv, 2 h and 24 h after onset of ischemia, measured 48 h after surgery): 131 ± 13* mm^3
- CORTICAL LESION (cerebral ischemia [1]; Study 2, 2 × 0.5 mg/kg iv, 5 h and 24 h after ischemia): 164 ± 15 mm^3
- reduction of the cortical lesion (cerebral ischemia [1]; Study 2, 2×1 mg/kg iv, 5 h and 24 h): 30%
- CORTICAL LESION (cerebral ischemia [1]; Study 2, 2 × 1 mg/kg iv, 5 h and 24 h after ischemia): 142 ± 24* mm^3
- reduction of the cortical lesion (cerebral ischemia [1]; Study 2, 2×1.5 mg/kg iv, 5 h and 24 h): 36%
- CORTICAL LESION (cerebral ischemia [1]; Study 2, 2 × 1.5 mg/kg iv, 5 h and 24 h after ischemia): 129 ± 17* mm^3
- reduction of the cortical lesion (cerebral ischemia [1]; Study 3, 2 × 1.5 mg/kg iv, 5 h and 24 h): 34%
- CORTICAL LESION (cerebral ischemia [1]; Study 3, 2 × 1.5 mg/kg iv, 5 h and 24 h after onset of ischemia): 129 ± 16** mm^3
- bleeding (cerebral ischemia [1]; during Studies 1-4, 0.5-1.5 mg/kg iv, two administrations): No problem of bleeding was encountered
- reduction of the cortical lesion (cerebral ischemia [2]; 5 h and 24 h, vs control group): 49%
- CORTICAL LESION (cerebral ischemia [2]; 5 h and 24 h after onset of ischemia, mean ± S.E.M.): 71 ± 13* mm^3

From US20040214796A1, “Novel therapeutic application of enoxaparin” (AVENTIS PHARMA S.A., priority 2000, published 2004)
